Values after ≈ are worked out from the molar mass of the structure shown.
Assays:
[1] = Tmax in human at 1 to 20 mg; format: ADME, organism-based; details: in vivo
[2] = target: T1, Muscarinic acetylcholine receptor M2 (Homo sapiens, UniProt P08172); experiment: Inhibition of muscarinic M2 receptor
T1 sequence (P08172 whole entry): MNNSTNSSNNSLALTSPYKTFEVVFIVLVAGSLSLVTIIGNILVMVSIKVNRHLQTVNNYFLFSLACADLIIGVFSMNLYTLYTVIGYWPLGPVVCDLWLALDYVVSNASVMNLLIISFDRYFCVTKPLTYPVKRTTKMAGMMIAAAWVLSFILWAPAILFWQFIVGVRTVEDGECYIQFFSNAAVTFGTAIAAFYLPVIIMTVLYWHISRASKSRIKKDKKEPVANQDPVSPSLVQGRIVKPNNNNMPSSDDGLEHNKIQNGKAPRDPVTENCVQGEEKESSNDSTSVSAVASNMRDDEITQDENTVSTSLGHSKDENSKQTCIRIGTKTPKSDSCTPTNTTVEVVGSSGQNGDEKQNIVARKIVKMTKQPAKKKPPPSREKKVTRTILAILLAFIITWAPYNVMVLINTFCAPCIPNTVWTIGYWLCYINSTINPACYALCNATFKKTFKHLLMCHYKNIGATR

[3] = target: T2, Fatty-acid amide hydrolase 1 (Homo sapiens, UniProt O00519); experiment: Inhibition of FAAH
T2 sequence (O00519 whole entry): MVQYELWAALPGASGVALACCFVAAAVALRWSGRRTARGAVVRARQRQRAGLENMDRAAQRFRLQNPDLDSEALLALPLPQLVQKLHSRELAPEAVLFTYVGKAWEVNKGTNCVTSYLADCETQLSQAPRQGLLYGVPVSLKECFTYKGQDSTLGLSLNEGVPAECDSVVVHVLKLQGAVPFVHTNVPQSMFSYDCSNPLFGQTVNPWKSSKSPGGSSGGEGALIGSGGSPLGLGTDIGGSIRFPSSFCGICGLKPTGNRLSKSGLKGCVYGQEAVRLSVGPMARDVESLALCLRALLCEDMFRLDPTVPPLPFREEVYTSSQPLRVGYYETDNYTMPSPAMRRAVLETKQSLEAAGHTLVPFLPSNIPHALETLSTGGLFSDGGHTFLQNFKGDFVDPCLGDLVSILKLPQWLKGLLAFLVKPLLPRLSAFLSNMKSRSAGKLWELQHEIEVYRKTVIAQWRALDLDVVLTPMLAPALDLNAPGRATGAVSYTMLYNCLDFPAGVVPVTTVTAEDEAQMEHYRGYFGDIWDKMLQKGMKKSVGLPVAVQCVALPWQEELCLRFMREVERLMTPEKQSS

[4] = Intrinsic clearance in dog hepatocytes assessed as parent compound disappearance at 1 uM per 10^6 cells; format: ADME, cell-based, Canis lupus familiaris, Hepatocyte; details: read-out: CLH
[5] = Intrinsic clearance in mouse hepatocytes assessed as parent compound disappearance at 1 uM per 10^6 cells; format: ADME, cell-based, Hepatocyte; details: read-out: CLH
[6] = Photostability stability by Hanau sun test; format: physicochemical
[7] = Intrinsic clearance in human hepatocytes assessed as parent compound disappearance at 1 uM per 10^6 cells; format: ADME, cell-based, Hepatocyte; details: read-out: CLH
[8] = Fraction unbound in dog plasma; format: ADME, cell-free, Canis lupus familiaris
[9] = Fraction unbound in mouse plasma; format: ADME, cell-free
[10] = target: T3, Diacylglycerol O-acyltransferase 1 (Rattus norvegicus, UniProt Q9ERM3); experiment: Inhibition of DGAT1 in rat adipose tissue assessed as reduction in triacylglycerol synthesis; format: tissue-based
T3 sequence (Q9ERM3 whole entry): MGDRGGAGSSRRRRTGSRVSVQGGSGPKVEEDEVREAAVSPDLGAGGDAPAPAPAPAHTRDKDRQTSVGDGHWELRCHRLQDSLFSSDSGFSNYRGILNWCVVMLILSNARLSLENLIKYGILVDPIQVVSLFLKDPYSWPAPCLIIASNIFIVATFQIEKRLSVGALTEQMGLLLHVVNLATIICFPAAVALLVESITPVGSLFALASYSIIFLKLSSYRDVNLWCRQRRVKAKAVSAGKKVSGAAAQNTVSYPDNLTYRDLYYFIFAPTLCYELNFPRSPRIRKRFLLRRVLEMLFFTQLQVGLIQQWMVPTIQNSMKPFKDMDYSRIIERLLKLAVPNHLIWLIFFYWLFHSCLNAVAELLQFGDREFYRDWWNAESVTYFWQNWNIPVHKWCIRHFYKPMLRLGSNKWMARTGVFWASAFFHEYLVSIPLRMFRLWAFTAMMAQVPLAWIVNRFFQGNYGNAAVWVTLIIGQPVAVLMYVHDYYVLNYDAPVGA

[11] = target: T4, Diacylglycerol O-acyltransferase 1 (Homo sapiens, UniProt O75907); experiment: Inhibition of DGAT1 in human HuTu80 cells; format: cell-based
T4 sequence (O75907 whole entry): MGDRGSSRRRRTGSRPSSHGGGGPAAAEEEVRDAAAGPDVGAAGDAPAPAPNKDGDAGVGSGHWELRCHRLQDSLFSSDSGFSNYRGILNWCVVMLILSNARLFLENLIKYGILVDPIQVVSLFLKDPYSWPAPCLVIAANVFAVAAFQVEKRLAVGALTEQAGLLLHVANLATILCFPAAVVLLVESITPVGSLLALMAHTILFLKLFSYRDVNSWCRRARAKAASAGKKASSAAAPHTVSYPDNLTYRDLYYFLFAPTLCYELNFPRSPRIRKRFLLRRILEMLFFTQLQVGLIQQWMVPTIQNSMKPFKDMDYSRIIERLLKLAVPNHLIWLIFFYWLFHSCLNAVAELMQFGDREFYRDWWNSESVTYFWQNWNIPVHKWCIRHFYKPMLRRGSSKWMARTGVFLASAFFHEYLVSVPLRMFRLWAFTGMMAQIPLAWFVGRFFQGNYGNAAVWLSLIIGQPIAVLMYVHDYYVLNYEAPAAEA

[12] = target: T4, Diacylglycerol O-acyltransferase 1; experiment: Inhibition of DGAT1 in human adipose tissue assessed as reduction in triacylglycerol synthesis
[13] = target: T4, Diacylglycerol O-acyltransferase 1; experiment: Inhibition of DGAT1 in human liver microsomes; design: species or system Microsome
[14] = Apparent permeability from apical to basolateral side in MDCK cells at pH 7.4; details: dog
[15] = Intrinsic clearance in rat hepatocytes assessed as parent compound disappearance at 1 uM per 10^6 cells; format: ADME, cell-based, Hepatocyte; details: read-out: CLH
[16] = Fraction unbound in human plasma at 37 degC by LC-UV/MS method based equilibrium dialysis method
[17] = Solubility in 0.1 M phosphate buffer at pH 7.4 at 25 degC incubated for 24 hrs
[18] = Volume of distribution in C57BL/6 mouse at 8.16 uM/kg, po or 5.4 uM/kg, iv; format: ADME, organism-based; details: in vivo
[19] = target: T4, Diacylglycerol O-acyltransferase 1
Description: Inhibition of human recombinant DGAT1 expressed in Sf9 cells by liquid scintillography

Cc1nc(C)c(-c2ccc(C3CCC(CC(=O)O)CC3)cc2)nc1C(N)=O (centres undefined) [AZD-7687]
Tmax [1]: ≤ 1 h
IC50 [2]: 80500 nM
IC50 [3]: 3700 nM
hepatocyte CLint at 1 µM [4]: 5.5 µL/min/1e6 cells
hepatocyte CLint at 1 µM [5]: 7.3 µL/min/1e6 cells
half-life [6]: 7.6 h
hepatocyte CLint at 1 µM [7]: < 2 µL/min/1e6 cells
fraction unbound [8]: 0.06
fraction unbound [9]: 0.1
IC50 [10]: 90 nM
IC50 [11]: 10 nM
IC50 [12]: 10 nM
IC50 [13]: 70 nM
Papp A→B [14]: 12 ×10⁻⁶ cm/s
hepatocyte CLint at 1 µM [15]: < 2 µL/min/1e6 cells
fraction unbound [16]: 0.047
solubility at 24 h [17]: 700 µM (≈ 257 µg/mL)
Vd [18]: 0.9 L/kg
IC50 [19]: 80 nM
